Reference: patent US20050003455A1, “Remedies for heart diseases” (priority 2001, published 2005)

What was measured:
[1] = tested on: caspase-3 activity of cultured rat myocardial cells; test: Staurosporine-induced increase in caspase-3 activity of cultured myocardial cells (Caspase-3 Assay Kit, Fluorimetric; AMC formation); assay type: cell-based; conditions: 1 μM staurosporine + 250 μM DIDS, 12-well multiwell plates, FIG. 5
Description: The caspase-3 activity of the thus prepared cells was measured with Caspase-3 Assay Kit, Fluorimetric (SIGMA CHEMICAL, Co., St. Louis, Mo., USA).
More specifically, 12-well multiwell plates were cultured for 2 hours after adding a conditioned culture solution, which was then removed and further cultivation was effected for an appropriate period, mostly for 2 hours; thereafter, cell lysates were prepared using Caspase-3 Assay Kit, Fluorimetric; in the subsequent stage, the amount of formation of specific fluorochrome 7-amino-4-methylcoumarin (AMC) was measured by means of a fluorometric microplate reader (SPECTRA Fluor, Wako Pure Chemical Industries, Ltd., Osaka, Japan) according to the procedure of measurement with the Kit; and the amount of AMC formation was used as an index of caspase-3 activity. […]

[2] = tested on: primary cultures of rat myocardial cells; test: Staurosporine-induced decrease in cell viability (WST-8) in primary cultures of rat myocardial cells; assay type: cell-based; conditions: for cytotoxicity induced in cultured myocardial cells: 1 μM staurosporine, HCO3−-free culture medium versus ordinary culture medium
Source text: The myocardial cells used in the experiments were those of primary cultures from rats. In order to prepare primary cultures of myocardial cells, heart was excised from SD rats at day 20 of pregnancy (purchased from Japan SLC Co., Ltd.) and enzyme-digested with collagenase (Worthington Biochemical Corp.) and trypsin (GIBCO BRL, Gaithersberg, Md.) to isolate myocardial cells and make a cell suspension of them. As an ordinary culture medium, D-MEM supplemented with fetal bovine serum (FBS) to give a concentration of 10% (GIBCO BRL, Gaithersberg, Md.) was employed. For checking to see if Cl^−/HCO3^− anion exchangers (AEs) would be involved in apoptosis in cardiovascular cells and in protection from it, Leibovitz's L-15 Medium supplemented with FBS to give a concentration of 10% (GIBCO BRL, Gaithersberg, Md.) was employed as an HCO3^−-free culture medium and the result from it was compared with the result from the ordinary culture medium. The HCO3^−-free culture medium was employed in order to suppress the function of the Cl^−/HCO3^− anion exchangers by depleting HCO3^−. The Cl^−/HCO3^− anion exchangers are widely distributed in erythrocytes and other tissues, AE1 being expressed primarily in erythrocytes and AE3 in myocardial cells and neurons. By coupling the exclusion of intracellular Cl^− to the outside of cells and intake of extracellular HCO3^− into the cells, the exchangers function as an intracellular Cl^− and pH regulating system and they also work as a cell volume regulating system during regulatory volume increase (RVI). In a pathological context, it is speculated that the exchangers participate in the process of myocardial cells' acidification which accompanies ischemia.
A suspension of myocardial cells at a density of 3-5×10^5 cells/mL was dispensed in 24-well multiwell plates (Falcon) in an amount of 0.5 mL per well, or in 96-well multiwell plates (Falcon) in an amount of 0.1 mL per well, or in 12-well multiwell plates (Falcon) in an mount of 1 mL per well. The plates were placed in a CO2 incubator and cultured in 5% CO2 at 37° C. for 2-3 days. The thus cultured cells were used in subsequent experiments.
A control group consisted of three culture media, a cell-free medium (blank), a cell-containing medium alone (D-MEM) and 0.3% DMSO [D-MEM supplemented with 0.3% DMSO (DOJINDO LABORATORIES, Kumamoto, Japan)]. A test group consisted of three culture media containing a drug or drugs under specified conditions, i.e., a solution of 1 μM staurosporine (Sigma) dissolved in 0.3% DMSO, a mixed solution of the 1 μM staurosporine and 125-1000 μM SITS (SIGMA CHEMICAL Co., St. Louis, Mo., USA), and a mixed solution of the 1 μM staurosporine and 62.5-250 μM DIDS (SIGMA CHEMICAL Co., St. Louis, Mo., USA); the culture media of the test group are hereunder referred to as “conditioned culture media”.
Specifically, after aspirating away a culture medium, a fresh medium of the control group or a conditioned culture medium of interest was added in 24-well multiwell plates in an amount of 0.5 mL/well. After adding the conditioned culture medium, the plates were placed in a CO2 incubator and cultured in 5% CO2 at 37° C. for 2-4 hours. When a conditioned culture medium based on the HCO3^−-free culture medium was added, the plates were placed in an atmospheric incubator and cultured at 37° C. […]

Compound | suppression of the staurosporine-induced increase in caspase-3 activity [1] | suppression of the staurosporine-induced drop in cell viability ([2]; 1 μM staurosporine + 62.5, 125 or 250 μM DIDS, 24-well multiwell plates, FIG. 4) | suppression of the staurosporine-induced decrease in cell viability ([2]; HCO3−-free culture medium, 1 μM staurosporine + 62.5, 125 or 250 μM DIDS, 24-well multiwell plates, FIG. 6) | apoptosis suppressing effect on myocardial cells ([2]; overall conclusion from Examples 1-6) | cytotoxicity induced in cultured myocardial cells ([2]; 24-well multiwell plates, FIG. 6) | cytotoxicity induced in cultured myocardial cells ([2]; 96-well multiwell plates, FIG. 7)
O=S(=O)(O)c1cc(N=C=S)ccc1C=Cc1ccc(N=C=S)cc1S(=O)(=O)O [DIDS, 4,4′-diisothiocyanostilbene-2,2′-disulfonic acid] | suppresses the staurosporine-induced increase in caspase-3 activity | suppresses the drop in cell viability in a dose-dependent manner | suppressed the decrease in cell viability in a dose-dependent manner | exhibit the apoptosis suppressing effect on myocardial cells |  | 
CN[C@@H]1C[C@H]2O[C@@](C)([C@@H]1OC)n1c3ccccc3c3c4c(c5c6ccccc6n2c5c31)C(=O)NC4 [staurosporine] |  |  |  |  | comparable levels of cytotoxicity was induced by staurosporine | comparable levels of cytotoxicity was induced on the 96-well multiwell plates by staurosporine
